Experimental data as given in patent US11033539B2, “Compounds of formulas (VII), (VIII), (IX), (XI), (XII), (XIII), and (XIV) as muscarinic receptor 4(M4) antagonists for treating neurological diseases” (Neurocrine Biosciences, Inc., priority 2015, dated 2021).
pKi: −log10 of the molar value.

These compounds were tested against human M4 receptor (Homo sapiens (Human), UniProt P08173) (assay: Radioligand (tritiated N-methylscopolamine) binding assay, M4). Conditions: Ki against the M4 receptor; membranes from CHO cells expressing human M4; tritiated N-methylscopolamine 1.5 nM; read-out: Ki.
Sequence of human M4 receptor (P08173 whole entry): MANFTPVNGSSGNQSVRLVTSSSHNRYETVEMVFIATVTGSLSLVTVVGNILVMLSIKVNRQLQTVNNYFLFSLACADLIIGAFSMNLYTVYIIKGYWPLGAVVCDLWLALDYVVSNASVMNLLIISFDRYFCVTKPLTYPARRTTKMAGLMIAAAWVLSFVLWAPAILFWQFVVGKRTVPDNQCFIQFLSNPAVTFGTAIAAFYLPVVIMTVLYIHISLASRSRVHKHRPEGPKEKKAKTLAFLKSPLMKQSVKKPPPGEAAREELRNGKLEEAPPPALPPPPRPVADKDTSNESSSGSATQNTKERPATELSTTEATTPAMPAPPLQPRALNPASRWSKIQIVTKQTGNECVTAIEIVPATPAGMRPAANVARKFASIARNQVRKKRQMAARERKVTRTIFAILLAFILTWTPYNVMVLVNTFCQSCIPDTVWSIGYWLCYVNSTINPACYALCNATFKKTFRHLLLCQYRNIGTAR
Outline: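 Compounds were tested at twelve concentrations ranging from 10 μM to […] against 1.5 nM radioligand on CHO cell membranes expressing each subtype. Incubation lasts 90 min at 37 °C in HEPES-buffered saline with Mg2+ and EDTA, pH 7.4, and filtration then separates bound radioligand.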
O=C(NCCC1CCN(Cc2ccccc2)CC1)N1CCN(c2ncccc2Cl)CC1 [8-47, N-[2-(1-benzylpiperidin-4-yl)ethyl]-4-(3-chloropyridin-2-yl)piperazine-1-carboxamide] showed a pKi of 6.00 to 7.00.
With O=C(c1ccc(-c2cccs2)cc1)N(C1CC1)C1CCN(Cc2ccccc2)CC1 [9-53, N-(1-benzylpiperidin-4-yl)-N-cyclopropyl-4-(thiophen-2-yl)benzamide] the pKi was 6.00 to 7.00.
With COC1(C(=O)NCCC2CCN(Cc3ccccc3)CC2)CCN(c2cc(C(F)(F)F)ccn2)CC1 [10-47, N-[2-(1-benzylpiperidin-4-yl)ethyl]-4-methoxy-1-[4-(trifluoromethyl)pyridin-2-yl]piperidine-4-carboxamide] the pKi was 7.00 to 8.00.
In the case of C=CCNC(=O)c1cnc(N2C[C@@H](C)N(C(=O)NCCC3CCN(Cc4ccccc4)CC3)[C@@H](C)C2)nc1 [27-4], the pKi was 6.00 to 7.00.
For Cc1c(C(=O)NCCC2CCN(Cc3ccccc3)CC2)cnc2cc(-c3cc(F)ccc3F)nn12 [18-10], the pKi was 7.00 to 8.00.
In the case of “N-{2-[1-(3-methylbutyl)piperidin-4-yl]ethyl}-1-[4-(trifluoromethoxy)phenyl]piperidine-4-carboxamide [11-19]”, the pKi was 6.00 to 7.00.
In the case of C[C@@H]1CN(c2ncc(C#N)cn2)C[C@H](C)N1C(=O)NCCC1CCN(Cc2ccncc2)CC1 [6-62, (2R,6S)-4-(5-cyanopyrimidin-2-yl)-2,6-dimethyl-N-{2-[1-(pyridin-4-ylmethyl)piperidin-4-yl]ethyl}piperazine-1-carboxamide], the pKi was 6.00 to 7.00.
N#Cc1cccc(N2CCC(NC(=O)NCCC3CCN(Cc4ccccc4)CC3)CC2)c1 [8-40, 3-[2-(1-benzylpiperidin-4-yl)ethyl]-1-[1-(3-cyanophenyl)piperidin-4-yl]urea] was tested, and the pKi was 6.00 to 7.00.
Work on C[C@@H]1CN(c2cnc(C(F)(F)F)nc2)C[C@H](C)N1C(=O)NCCC1CCN(Cc2ccccc2)CC1 [22-1, (2R,6S)—N-[2-(1-benzylpiperidin-4-yl)ethyl]-2,6-dimethyl-4-[2-(trifluoromethyl)pyrimidin-5-yl]piperazine-1-carboxamide] yielded a pKi of 7.00 to 8.00.
For CC1(C(=O)NCCC2CCN(Cc3ccccc3)CC2)CCN(c2ccc(OC(F)(F)F)cc2)CC1 [10-31, N-[2-(1-benzylpiperidin-4-yl)ethyl]-4-methyl-1-[4-(trifluoromethoxy)phenyl]piperidine-4-carboxamide], the pKi was 7.00 to 8.00.
N#Cc1ccc(N2CCC(C(=O)NCCC3CCN(Cc4ccc(O)cc4)CC3)CC2)nc1 [11-17, 1-(5-cyanopyridin-2-yl)-N-(2-{1-[(4-hydroxyphenyl)methyl]piperidin-4-yl}ethyl)piperidine-4-carboxamide] was tested, and the pKi was 6.00 to 7.00.
CCNC(=O)c1cc(C)nc(N2CCN(C(=O)NCCC3CCN(Cc4ccccc4)CC3)[C@H](C)C2)n1 [27-19] was tested, and the pKi was 6.00 to 7.00.
With COc1ccccc1C1(O)CCN(C(=O)NCCC2CCN(Cc3ccccc3)CC2)CC1 [8-42, N-[2-(1-benzylpiperidin-4-yl)ethyl]-4-hydroxy-4-(2-methoxyphenyl)piperidine-1-carboxamide] the pKi was 6.00 to 7.00.
Work on Cc1c(C(=O)NCCC2CCN(Cc3ccccn3)CC2)cnc2cc(-c3cccc(C(F)(F)F)c3)nn12 [19-6] yielded a pKi of 6.00 to 7.00.
C[C@@H]1CN(c2ncc(C#N)c(N(C)C)n2)CCN1C(=O)NCCC1CCN(Cc2ccccc2)CC1 [5-15, (2R)-N-[2-(1-benzylpiperidin-4-yl)ethyl]-4-[5-cyano-4-(dimethylamino)pyrimidin-2-yl]-2-methylpiperazine-1-carboxamide] was tested, and the pKi was 7.00 to 8.00.
C[C@@H]1CN(c2ncc(C#N)cn2)C[C@H](C)N1C(=O)NCCC1CCN(Cc2ccc3c(c2)nnn3C)CC1 [6-66, (2R,6S)-4-(5-cyanopyrimidin-2-yl)-2,6-dimethyl-N-(2-{1-[(1-methyl-1H-1,2,3-benzotriazol-5-yl)methyl]piperidin-4-yl}ethyl)piperazine-1-carboxamide] gave a pKi of 6.00 to 7.00.
Compound N#Cc1cc(C(F)(F)F)ccc1N1CCN(C(=O)NCCC2CCN(Cc3ccccc3)CC2)CC1 [8-12, N-[2-(1-benzylpiperidin-4-yl)ethyl]-4-[2-cyano-4-(trifluoromethyl)phenyl]piperazine-1-carboxamide] has a pKi of 7.00 to 8.00.
C[C@@H]1CN(c2cnc(C(F)(F)F)nc2)C[C@H](C)N1C(=O)NCCC1CCN(Cc2ccc(O)cc2)CC1 [6-54, (2R,6S)-N-(2-{1-[(4-hydroxyphenyl)methyl]piperidin-4-yl}ethyl)-2,6-dimethyl-4-[2-(trifluoromethyl)pyrimidin-5-yl]piperazine-1-carboxamide] was tested, and the pKi was 7.00 to 8.00.
With COc1ccc(N2CCC(C(=O)NCCC3CCN(Cc4ccccc4)CC3)CC2)cc1OC(F)(F)F [10-33, N-[2-(1-benzylpiperidin-4-yl)ethyl]-1-[4-methoxy-3-(trifluoromethoxy)phenyl]piperidine-4-carboxamide] the pKi was 7.00 to 8.00.
Compound C[C@@H]1CN(c2cc(F)c(F)c(F)c2)CCN1C(=O)NCCC1CCN(Cc2ccc(C(N)=O)cc2)CC1 [6-16, (2R)-N-(2-{1-[(4-carbamoylphenyl)methyl]piperidin-4-yl}ethyl)-2-methyl-4-(3,4,5-trifluorophenyl)piperazine-1-carboxamide] has a pKi of 7.00 to 8.00.
Work on CNc1nc(N2C[C@@H](C)N(C(=O)NCCC3CCN(Cc4ccccc4)CC3)[C@@H](C)C2)ncc1C#N [5-21, (2R,6S)-N-[2-(1-benzylpiperidin-4-yl)ethyl]-4-[5-cyano-4-(methylamino)pyrimidin-2-yl]-2,6-dimethylpiperazine-1-carboxamide] yielded a pKi of 6.00 to 7.00.
For COc1cc(C#N)cc(N2CCN(C(=O)NCCC3CCN(Cc4ccccc4)CC3)[C@H](C)C2)c1 [4-39, (2R)-N-[2-(1-benzylpiperidin-4-yl)ethyl]-4-(3-cyano-5-methoxyphenyl)-2-methylpiperazine-1-carboxamide], the pKi was 7.00 to 8.00.
O=C(CC1CCN(Cc2ccccc2)CC1)NCC1CCN(c2cccc(OC(F)(F)F)c2)CC1 [10-26, 2-(1-benzylpiperidin-4-yl)-N-({1-[3-(trifluoromethoxy)phenyl]piperidin-4-yl}methyl)acetamide] showed a pKi of 6.00 to 7.00.
For O=C(NC1CCN(c2ccc(OC(F)(F)F)cc2)CC1)OCCC1CCN(Cc2ccccc2)CC1 [12-11, 2-(1-benzylpiperidin-4-yl)ethyl N-{1-[4-(trifluoromethoxy)phenyl]piperidin-4-yl}carbamate], the pKi was 7.00 to 8.00.
Work on COC1(C(=O)NCCC2CCN(Cc3ccccc3)CC2)CCN(c2ccc(OC(F)(F)F)cc2)CC1 [10-38, N-[2-(1-benzylpiperidin-4-yl)ethyl]-4-methoxy-1-[4-(trifluoromethoxy)phenyl]piperidine-4-carboxamide] yielded a pKi of 7.00 to 8.00.
Cc1ccc(-c2ccc(C(=O)NCCC3CCN(Cc4ccccc4)CC3)c(F)c2)cc1 [9-40, N-[2-(1-benzylpiperidin-4-yl)ethyl]-2-fluoro-4-(4-methylphenyl)benzamide] gave a pKi of 7.00 to 8.00.
Compound O=C(NCCC1CCN(Cc2ccccc2)CC1)[C@@H]1CCN(c2ccc(OC(F)(F)F)cc2)C1 [10-72, (3R)-N-[2-(1-benzylpiperidin-4-yl)ethyl]-1-[4-(trifluoromethoxy)phenyl]pyrrolidine-3-carboxamide] has a pKi of 6.00 to 7.00.
In the case of COc1ccc(N2CCC(C(=O)NCCC3CCN(Cc4ccccc4)CC3)CC2)cc1F [10-39, N-[2-(1-benzylpiperidin-4-yl)ethyl]-1-(3-fluoro-4-methoxyphenyl)piperidine-4-carboxamide], the pKi was 7.00 to 8.00.
C[C@@H]1CN(c2ncc(C#N)cn2)CCN1C(=O)NCCC1CCN(Cc2ccccc2)CC1 [5-13, (2R)-N-[2-(1-benzylpiperidin-4-yl)ethyl]-4-(5-cyanopyrimidin-2-yl)-2-methylpiperazine-1-carboxamide] was tested, and the pKi was 7.00 to 8.00.
Work on Cc1c(C(=O)NCCC2CCN(Cc3ccccc3)CC2)cnc2cc(-c3ccc(C(F)(F)F)cc3)nn12 [17-8, N-[2-(1-benzylpiperidin-4-yl)ethyl]-7-methyl-2-[4-(trifluoromethyl)phenyl]pyrazolo[1,5-a]pyrimidine-6-carboxamide] yielded a pKi of 7.00 to 8.00.
With C[C@@H]1CN(c2ncc(C#N)cn2)C[C@H](C)N1C(=O)NCCC1CCN(Cc2ncccn2)CC1 [6-58, (2R,6S)-4-(5-cyanopyrimidin-2-yl)-2,6-dimethyl-N-{2-[1-(pyrimidin-2-ylmethyl)piperidin-4-yl]ethyl}piperazine-1-carboxamide] the pKi was 6.00 to 7.00.
In the case of C[C@@H]1CN(c2ncc(C(F)(F)F)cn2)CCN1C(=O)NCCC1CCN(Cc2cccnc2)CC1 [6-32, (2R)-2-methyl-N-{2-[1-(pyridin-3-ylmethyl)piperidin-4-yl]ethyl}-4-[5-(trifluoromethyl)pyrimidin-2-yl]piperazine-1-carboxamide], the pKi was 7.00 to 8.00.
With COC(=O)c1cc(C)nc(N2CCN(C(=O)NCCC3CCN(Cc4ccccc4)CC3)[C@H](C)C2)n1 [5-12, methyl 2-[(3R)-4-{[2-(1-benzylpiperidin-4-yl)ethyl]carbamoyl}-3-methylpiperazin-1-yl]-6-methylpyrimidine-4-carboxylate] the pKi was 6.00 to 7.00.
Compound CN(C(=O)NCCC1CCN(Cc2ccccc2)CC1)C1CCN(c2ccc(C(F)(F)F)cc2)C1 (centres unmarked) [8-21, 1-[2-(1-benzylpiperidin-4-yl)ethyl]-3-methyl-3-{1-[4-(trifluoromethyl)phenyl]pyrrolidin-3-yl}urea] has a pKi of 6.00 to 7.00.
Work on Cc1c(C(=O)NCCC2CCN(Cc3ccccc3)CC2)cnc2cc(-c3cccc(F)c3)nn12 [18-6] yielded a pKi of 7.00 to 8.00.
For O=C(NCCC1CCN(Cc2ccccc2)CC1)c1ccn2cc(-c3ccc(OC(F)(F)F)cc3)nc2c1 [9-25, N-[2-(1-benzylpiperidin-4-yl)ethyl]-2-[4-(trifluoromethoxy)phenyl]imidazo[1,2-a]pyridine-7-carboxamide], the pKi was 7.00 to 8.00.
With Cc1nc(CN2CCC(CCNC(=O)C3CCN(c4ccc(OC(F)(F)F)cc4)CC3)CC2)cs1 [11-4, N-(2-{1-[(2-methyl-1,3-thiazol-4-yl)methyl]piperidin-4-yl}ethyl)-1-[4-(trifluoromethoxy)phenyl]piperidine-4-carboxamide] the pKi was 6.00 to 7.00.
Cc1nc(-c2ccc(F)nc2)sc1C(=O)NCCC1CCN(Cc2ccccc2)CC1 [9-57, N-[2-(1-benzylpiperidin-4-yl)ethyl]-2-(6-fluoropyridin-3-yl)-4-methyl-1,3-thiazole-5-carboxamide] gave a pKi of 6.00 to 7.00.
